Assay results from patent US20130336987A1, “Identification of Therapeutic Targets in Cutaneous SCC” (UNIVERSITY OF DUNDEE, priority 2010, published 2013).
Entries after “also recorded” stand apart in the source; their conditions may differ.

How the values were obtained:
[1] = system: cSCC keratinocytes (SCCIC1, SCCRDEB2); assay: MTS cell viability assay in cSCC keratinocytes; assay type: cell-based, human; details: 72 hours, GW843682X 10 μM, BI2536 5 μM
Method: For the initial high-throughput RNAi screen we used a custom library to our 21 up regulated genes containing the top 3 siRNA oligonucleotides per gene as ranked by Sigma. In each experiment a negative control (MISSION® siRNA Universal Negative Control #1, Sigma) and positive control (AllStars Hs Cell Death Control siRNA, Qiagen) were used. Cells were seeded in 96-well plates at 5000 cells/well in 100 μl keratinocyte media and transfected 24 hours later with siRNA (40 nM final concentration) using Lipofectamine™ 2000, Invitrogen, Carlsbad, Calif.) diluted in Opti-MEM® (Invitrogen) according to manufacturers instructions. Cell viability was assessed at 48, 72 and 96 hours post-transfection, and a reading taken at time zero (pre-transfection), using the MTS CellTitre 96 AQueous One Solution Cell Proliferation Assay (Promega, Madison, Wis.) according to manufacturers instructions. Absorbance readings were taken at 490 nm using a VersaMax microplate reader (Molecular Devices, Sunnyvale, Calif.).
For RNAi transfection, cells were seeded in 6-well plates at 2.5×10^5 cells/well and 24 hours later transfected as described above. Cells were left for 16 hours then trypsinized, counted on a CASY counter (Roche Diagnostics Ltd, West Sussex, UK) and seeded in 96 well plates at 3000 cells/well in 100 μl media. […] Viability was assessed as before.

[2] = system: normal human keratinocytes (NHK); assay: MTS cell viability assay in normal keratinocytes; assay type: cell-based; details: 72 hours, GW843682X 10 μM, BI2536 5 μM
Method: For RNAi transfection, cells were seeded in 6-well plates at 2.5×10^5 cells/well and 24 hours later transfected as described above. Cells were left for 16 hours then trypsinized, counted on a CASY counter (Roche Diagnostics Ltd, West Sussex, UK) and seeded in 96 well plates at 3000 cells/well in 100 μl media. Cell viability was determined using the MTS assay as described above, with an absorbance reading at time of seeding (T0) and readings 48 and 72 hour post transfection. For small molecule inhibitor treatment cells were seeded in 96-well plates at 3000 cells/well and 24 hours later 100 μl fresh media containing drug at the designated final concentrations added. Viability was assessed as before.

cSCC keratinocytes [3] = assay: Cell cycle analysis (BrdU / propidium iodide, flow cytometry); assay type: cell-based, human; details: 20 hours following drug treatment, GW843682X 10 μM, BI2536 5 μM
Method: Cells were RNAi transfected or drug treated for designated times before BrdU (Sigma) was added at 30 μM final volume for 20 min. Cells were collected and fixed by dropping 1 ml cell suspension in PBS into 3 ml ice cold ethanol while vortexing. Pepsin (Sigma) was added at 1 mg/ml in 30 mM HCL for 30 min and DNA denatured with 2N HCL for 20 min. Anti-BrdU antibody (Becton Dickinson) diluted in PBS/0.5% Tween/0.5% BSA was added for one hour followed by 30 min incubation with a FITC-sheep anti-mouse IgG (Sigma). Propidium iodide (Sigma) was added in the final wash step at a concentration of 25 μg/ml and samples analyzed using a FACScan flow cytometer and CellQuest software (Becton Dickinson).

cSCC keratinocytes [4] = assay: Cell Death Detection ELISA (apoptosis, cytoplasmic nucleosomes) in cSCC cells; assay type: cell-based, human; details: GW843682X 10 μM, BI2536 5 μM, relative to drug vehicle control
Method: Apoptosis was detected using the Cell Death Detection ELISA^PLUS (Roche Diagnostics Ltd, West Sussex, UK). Cells were seeded in 24-well plates at 0.5×10^5 cells/well for 24 hours and either transfected with siRNA or treated with small molecule inhibitors for 24 or 16 hours respectively before collecting lysates and performing ELISA as described by manufacturer.

SCCIC1 xenograft tumors = assay: SCCIC1 xenograft tumor treatment in SCID mice; assay type: in vivo, SCID Balb/c mice
Method: FIG. 6—PLK1 inhibition and c20orf20 knockdown inhibits tumor growth in vivo. Female SCID Balb/c mice were subcutaneously injected in the right flank with 4×10^6 SCCIC1 cells mixed with high-concentration Matrigel®. When tumors reached a volume of 100 mm^3, animals were organised in treated and control groups. (A) Top panel: SCCIC1 tumors were treated with the PLK1 inhibitor, BI 2536. The treated group (n=3) was injected into the tumor with 100 μl of BI 2536 formulated in hydrochloric acid (0.1 N), diluted with 0.9% NaCl at a dose of 25 mg/kg, 3 times a week during 2 weeks. The control group (n=2) was injected with the vehicle at the same schedule. Tumor volumes were measured 3 times a week with a calliper for a further 2 weeks after treatment. Bottom panel: SCCIC1 tumors were treated with c20orf20 siRNA. The treated group (n=3) was injected into the tumor with 580 pmol c20orf20 targeting siRNA duplex in 100 μl PBS. The control group was injected with 580 pmol non-targeting siRNA duplex in approximately 100 μl PBS. Each group was treated every other day for 16 cycles. The animals were sacrificed 2 days after the last treatment. (B) Representative H&E stained section (top) and keratin immunostained section (bottom) of control (left) and BI2536-treated (right) SCCIC1 tumors after 2 weeks of treatment. A subset of animals was sacrificed at the end of the 6 cycles of treatment without waiting 2 more weeks. […] The control tumors contained numerous SCCIC1 cells (100× magnification). (C) Representative pictures from the experiment shown in (A) of vehicle (top left, tumor bisected showing both halves delineated by the dashed line) and BI2536-treated (top right) SCCIC1 tumors. […]
Primary keratinocytes were isolated and grown in the presence of a mitotically inactivated 3T3 feeder layer as described (Rheinwald and Beckett, 1981). […] Tumors were measured by caliper and treatment began when volume reached 100 mm^3.

Compound | cell viability (MTS assay) [1] | growth of normal primary keratinocytes (MTS assay) [2] | cell cycle distribution (G0/G1, S, G2/M) (cSCC keratinocytes [3]) | apoptosis (cleaved nucleosomes in the cytoplasm) (cSCC keratinocytes [4]) | tumor volume at the end of the 6 cycles of treatment (SCCIC1 xenograft tumors; BI2536 25 mg/kg injected into the tumor, 3 times a week, 2 weeks, treated versus control group) | presence of tumor keratinocytes in the tumor (histology) (SCCIC1 xenograft tumors; BI2536 25 mg/kg injected into the tumor, 3 times a week, after 2 weeks of treatment, versus vehicle, 25 mg/kg) | efficacy in treating cSCC in vivo (SCCIC1 xenograft tumors; BI2536, SCCIC1 xenograft)
CC[C@@H]1C(=O)N(C)c2cnc(Nc3ccc(C(=O)NC4CCN(C)CC4)cc3OC)nc2N1C1CCCC1 [BI2536] | potent reduction of cell viability | no effect | accumulation of cells at the G2/M phase | substantial induction of apoptosis | no difference in tumor volume | without any discernable SCCIC1 tumor cells; also recorded: marked reduction in the presence of tumor keratinocytes | dramatic efficacy
COc1cc2ncn(-c3cc(OCc4ccccc4C(F)(F)F)c(C(N)=O)s3)c2cc1OC [GW843682X] | potent reduction of cell viability | no effect | accumulation of cells at the G2/M phase | substantial induction of apoptosis | – | – | –
